Tests used:
[1] = test system: wild-type Col-0 Arabidopsis; test: Root growth inhibition by 2,4-D, wild-type Arabidopsis; type: in vivo, Arabidopsis thaliana; conditions: Non transgenic (Col-0)
Method: Seeds of Arabidopsis ecotype Columbia (Col-0) and GH3 transgenic events were surface sterilized with 70% (v/v) ethanol for 5 minutes and 10% (v/v) bleach for 15 minutes. After being washed three times with distilled water, the seeds were incubated at 4° C. for 4 days. The seeds were then germinated on 1× Murashige and Skoog (MS) medium with a pH of 5.7, 3% (w/v) sucrose, and 0.8% (w/v) agar. After incubation for 3.5 days, the seedlings were transferred to the basal medium containing B5 vitamin, 3% (w/v) sucrose, […] MES (pH 5.7), 1.2% (w/v) agar, and filter sterilized auxin herbicides 2,4-D or dicamba was added to the media at 60° C. The concentrations of 2,4-D were 0 μM, 0.1 μM, 0.5 μM, 0.7 μM, and 1.0 μM. The concentrations of dicmaba were 0 μM, 1.0 μM, 5.0 μM, 7.0 μM, and 10 μM. […]
After 6 days on media with various concentrations of 2,4-D or dicamba, the length of the primary root was measured. […]
Transgenic Arabidopsis lines overexpressing SEQ ID NO:3 were generated and evaluated for 2,4-D herbicide response as described in Example 5. […] Root length of 8 plants per transgenic line was measured and the average was compared to untreated seedlings within the same genetic background.

[2] = test system: Arabidopsis ecotype Col-0 plant; test: Arabidopsis response to spot infiltrated auxins and conjugates; type: in vivo, Arabidopsis thaliana; conditions: 50, 150, and 500 μM; result in words
Method: The effect of auxin conjugates was assessed using Arabidoposis (Arabidopsis thialiana) ecotype Col-0 plant. Prior to studies utilizing the auxin conjugates, levels of analytical grade (98%+pure) IAA, 2,4-D and dicamba in solution were applied at various concentrations directly to developmentally similar leaves of 20-23 day old Arabidopsis seedlings by needleless syringe spot infiltration methodology, in order to determine range of auxinic response and severity. Phenotypes were documented relative to control at 1 day post-spot infiltration and subsequently every other day, up to nine days post treatment. Three concentrations were chosen based on reproducibility, and conjugated forms were then studied with 4 or more replicate treatments for each, along with appropriate negative controls (H2O and 10% EtOH).
Examples 9 and 10 utilized a spot infiltration method for the delivery of an herbicide directly to leaves of a plant. The method generally allows for the directed delivery of a variety of agents to a localized area of a plant, e.g. localized region of leaves, for screening or assessment purposes, e.g. to quickly assess the response of a plant to the agent. As used in the foregoing examples, the spot infiltration method was used to introduce specific herbicides or specific conjugates of the herbicides to seedling plant leaves. Following introduction of the herbicide or the appropriate conjugate, plants were observed daily for nine days for characteristics of epinasty, trifoliate leaf curly, chlorosis, and new growth recovery.
Briefly, a solution of the desired agent is prepared of the desired agent, e.g. as described above in Example 10, solutions (5% EtOH) of 1, 2.5 and 5 mM IAA. The solution is then drawn into a 1 mL BD™ slip-tip syringe, bulk, non-sterile syringe (e.g. Becton, Dickinson and Company, Product No. 301025) with 100 μL markings. The desired volume is then applied to the leaf, e.g. as described in Examples 9 and 10, with the tip of the syring against the leaf and positive pressure applied to the syringe plunger. Sufficient pressure is applied in order to infuse the area beneath the syringe opening, but not so much pressure as to cause a visible-to-the-eye puncture or hole to form in the leaf. Some run-off of solution around the syringe opening is expected. In the foregoing examples, two spots were applied to each of two leaves per seedling for soybean plants. […] In soybean, both spots per leaf were at the distal portion of the leaf about 1-2 cm apart. When the method was applied to Arabidopsis, two developmentally intermediate aged leaves were chosen per plant, and one spot infiltration was carried out per leaf.
Generally, for Arabidopsis, the two leaves were chosen from opposite sides of rosette. In general, the spot infiltration method is carried out on younger plants in order to minimize experimental footprint and to maintain developmental uniformity. However, the method is not limited to use on young plants and can be easily applied to older plants as determined by the goals of a particular experiment.

**Q.** How did the “Percentage of the average root length compared with 0 nM 2,4-D treatment” value ([1]; 10 nM 2,4-D) turn out when `O=C(O)COc1ccc(Cl)cc1Cl` [2,4-D, 2,4-dichlorophenoxyacetic acid] was run?
**A.** Its value is 77%.

**Q.** What about the “Percentage of the average root length compared with 0 nM 2,4-D treatment” value ([1]; 100 nM 2,4-D) of the same compound?
**A.** Its value is 58%.

**Q.** What about the “Phenotype, Arabidopsis” value [2] of the same compound?
**A.** Its value is “increased auxinic response ranging from mild to more extreme epinasty”.
